Measurements taken from article PMC7785802, “Therapeutic Efficacy of a Trichinella Spiralis Paramyosin-Derived Peptide Modified With a Membrane-Targeting Signal in Mice With Antigen-Induced Arthritis” (Frontiers in Microbiology, 2020).

Assays:
[1] = test system: normal mouse knee joint cavity; experiment: Peptide retention in normal mouse joint cavities (immunofluorescence); format: in vivo; conditions: biotin-labeled peptide, 10 μg in 10 μl PBS intraarticular, normal mice; for staining of joint cavity after intraarticular injection: 12, 24, 48 h, streptavidin-FITC, one mouse per time point
Experimental: As previous studies reported, immunofluorescence assay was used to assess the retention time of the peptides in normal mouse joint cavities (Williams et al., [2004]). The normal mice were divided into original and modified peptide groups and treated with the corresponding peptides [10 μg in 10 μl PBS by intraarticular (IA) injection respectively. At 12, 24, and 48 h after injection, a single mouse from each group was randomly chosen and sacrificed under anesthesia (1% sodium pentobarbital, 50 mg/kg)]. Knee joints were dissected, fixed in 4% paraformaldehyde, and decalcified with decalcification solution (0.5 M EDTA, pH 8.0) before embedding in paraffin. Midsagittal serial sections (7 μm in thickness) were cut and peptide retention was assessed using streptavidin-FITC (eBioscience) (1:100 in PBS) followed by fluorescent microscopy (Leica).
Figure 4 Retention time of the modified peptide in the joint cavities was prolonged. The biotin-labeled original or modified peptide was injected into the knee joint and then the knee joints were dissected at 12, 24, and 48 h and probed with streptavidin-FITC in immunofluorescence assays.

[2] = test system: mice with antigen-induced arthritis (AIA); experiment: Histology (HE) of AIA knee joints; format: in vivo, mouse; conditions: for synovial histology (HE): 40 μg peptide + 25 μg mBSA intraarticular, day 3 post-AIA induction, n = 6
Experimental: (§1) AIA was induced in male C57BL/6J wildtype mice (8–10 weeks of age) according to a previously described protocol (Ebbinghaus et al., [2017]) with minor modifications. Briefly, the mice were intraperitoneally injected with 200 ng pertussis toxin (List Biological Laboratories, California, USA) prior to being subcutaneously immunized with 100 μg methylated bovine serum albumin (mBSA; Sigma-Aldrich, St. Louis, Missouri, USA) emulsified in Freund's complete adjuvant (Sigma-Aldrich). The immune response was boosted with identical subcutaneous mBSA immunizations at 14 and 21 days after the first immunization. At 28 days after the initial immunization, the right knee joint of each mouse was intraarticularly injected with 10 μl PBS as the control, while the left knee joint received either 10 μl PBS only (normal group), 25 μg mBSA (to induce AIA) in 10 μl PBS (AIA-only group), 40 μg modified peptide with 25 μg mBSA in 10 μl PBS (modified peptide+AIA group), or 40 μg original peptide with 25 μg mBSA in 10 μl PBS (original peptide+AIA group). Every day after AIA induction (and intraarticular peptide treatment), the difference in the joint diameter (swelling in mm) between the right and left knee joints in each mouse was assessed using a digital micrometer to evaluate the AIA severity. Each joint was measured three times and the mean diameter was calculated and recorded. […]
To assess the therapeutic effects of the peptides on AIA, the mice were euthanized on day 3 post-AIA induction. […] The degree of histopathologic tissue damage was quantified using the following previously described cumulative score for evaluating disease severity (Durigutto et al., [2013]). […] Additionally, according to the immunofluorescence protocol, tissue deposition of MAC was assessed by immunofluorescence assay with incubating rabbit anti-mouse C9 IgG (Sigma-Aldrich) at a 1:200 dilution overnight at 4°C followed by incubation with FITC-labeled goat anti-rabbit IgG (DAKO, Glostrup, Denmark) at a 1:200 dilution for an additional 60 min at room temperature (Lei et al., [2020]). […]

mouse ATDC5 cells = experiment: Peptide binding to cell surface, confocal laser scanning microscopy; format: cell-based; conditions: biotin-labeled peptide 260 nmol, 540 nmol, 1.08 mmol; streptavidin-FITC, DAPI
Text: The mouse ATDC5 chondrogenic cell line is an important chondrocyte model that has been widely used in the study of chondrocyte proliferation and differentiation. This cell line was used to evaluate the membrane-binding ability of the modified peptide, as articular cartilage (which contains chondrocytes) is one of the main cellular components in the joint cavity. The cells were purchased from Guangzhou Jennio Biotech Co., Ltd. (Guangzhou, China) and maintained in Dulbecco's Modified Eagle Medium (DMEM, ThermoFisher, America) supplemented with 10% fetal bovine serum (FBS, Gibco, Australia) at 37°C in a humidified atmosphere with 5% CO2. The 5th−10th passages of the cells were used in the study.
To assess the binding ability of the modified peptide to the cell membrane, the three peptides were labeled with biotin at the C-terminus. […] The cells were washed and resuspended in PBS and then the binding of the peptides to the cell membrane was assessed by flow cytometry (BD Biosciences, California, USA). […] The binding of the peptides to the cell membrane was then assessed by staining with streptavidin-FITC (eBioscience). […] They were then analyzed by confocal laser scanning microscopy (Leica, Germany).
Figure 3 Modified peptide non-specifically bound to the cell surface. (A) Binding of peptides to the surface of mouse ATDC5 cells measured by flow cytometry. […]

[3] = test system: membrane attack complex (MAC); experiment: MAC (C9) deposition in AIA knee joints (immunofluorescence); format: in vivo; conditions: 40 μg peptide + 25 μg mBSA intraarticular; day 3 post-AIA induction; anti-mouse C9 immunofluorescence; n = 6
Experimental: as §1, with “At 28 days after the initial immunization, the right knee joint of each mouse was intraarticularly injected with 10 μl PBS as the control, while the left knee joint received either 10 μl PBS only (normal group), 25 μg mBSA (to induce AIA) in 10 μl PBS (AIA-only group), 40 μg modified peptide with 25 μg mBSA in 10 μl PBS (modified peptide+AIA group), or 40 μg original peptide with 25 μg mBSA in 10 μl PBS (original peptide+AIA group).” left out
To assess the therapeutic effects of the peptides on AIA, the mice were euthanized on day 3 post-AIA induction. […] The degree of histopathologic tissue damage was quantified using the following previously described cumulative score for evaluating disease severity (Durigutto et al., [2013]). […]

With “Myr-GSSKSPSKKKKKKPG-ACP-VSMGKSLSSKVYVM [modified peptide, Ts-pmy-derived peptide modified with a membrane-targeting signal]” the “staining of joint cavity after intraarticular injection” value [1] was “intense staining along the synovial lining even at 48 h after injection”, the “retention time on synovial lining” value ([1]; 48 h is last time point) was ≥ 48 h and the “synovial histology (HE)” value [2] was “milder synovial hyperplasia and inflammatory cell infiltration compared to the AIA-only or original peptide+AIA mice”. For the same substance, the histopathological scores ([2]; 40 μg peptide intraarticular at the time of AIA induction, cumulative score (synovial hyperplasia, leukocyte infiltration, fibrosis), no numbers given) was “significantly decreased”, the “binding to surface of ATDC5 cells (confocal microscopy)” value (mouse ATDC5 cells) was “could bind to the surface of mouse ATDC5 cells” and the “MAC deposition in synovial connective tissue” value [3] was “significantly weaker”.
With “VSMGKSLSSKVYVM [original peptide, tetradecapeptide derived from Trichinella spiralis paramyosin (Ts-pmy)]” the “staining of joint cavity after intraarticular injection” value [1] was “no staining”, the “synovial histology (HE)” value [2] was “severe edema, hyperplasia, and inflammatory cell infiltration compared to normal joints” and the “MAC deposition in synovial connective tissue” value [3] was “clearly detected”.
